Test results from patent US4442093A, “Method for administering 24,25-dihydroxycholecalciferol to persons suffering from hypercalcemia” (Kureha Kagaku Kogyo Kabushiki Kaisha, priority 1981, dated 1984).
No end group written: not given here.

Tests used:
[1] = system: ulcer found on the duodenum; assay: Healing of acetic acid induced duodenal ulcer (Example 10); assay type: in vivo, male rats; settings: 20 µg/kg/day oral, 10 days
Method: Fourty five male rats of body weight of 240 to 260 g were equally divided into three groups, each consisting of 15 animals, and they were subjected to an operation following the method of Okabe et al. (refer to Amer. J. Dig. Dia., 16, 277, 1971), in which under anesthesia by ether, a circular frame made of a metal was placed on the serosa 5 to 7 mm from the pylorus and 0.06 ml of gracial acetic acid was poured onto the round part within the frame and after 30 sec, the acetic liquid was removed with the frame.
The thus operated rats of the first group were administered orally with a suspension of […] of 24R,25-(OH)2 -D3 in Panacete®810 containing 0.2% by weight of ethanol once a day for continuous 10 days from the third day of the operation at a daily dose rate of 20 micrograms of 24R,25-(OH)2 -D3 /kg. To the thus operated rats of the second group (control), only Panacete®810 was orally administered at a daily dose rate of 2 ml/kg for continuous 10 days.
The thus operated rats of the third group were used in the comparative test. Namely, they were treated in the same manner as those of the first group except for administration of gefarnate (3,7-dimethyl-2,6-octadienyl-5,9,13-trimethyl-4,8,12-tetradecatrienoate) at a daily dose rate of 20 microgram/kg body weight in stead of 24R,25-(OH)2 -D3 in the first group.
After finishing the final administration, all the rats were sacrificed by ether and their duodenum was taken out for autopsy. The length and the width of the ulcer found on the duodenum were measured, and their product with a unit of mm^2 was taken and named as the ulcer coefficient. The rate of healing of the ulcer was calculated by the following formula: [formula] wherein C is the ulcer coefficient of control and U is the ulcer coefficient of the group to which the present compound was administered.

[2] = system: gastric ulcer; assay: Prevention of gastric ulcer due to pyloric ligation (Example 9); assay type: in vivo, male Wistar rats; settings: 200 µg/kg i.p. once after pyloric ligation, 15 h
Method: Twenty male Wistar rats of average body weight of 250 g were divided equally into two groups, and used in the following test:
After 36 hour fasting, all the rats were subjected to pyloric ligation, and the rats of the first group were administered with 2 ml/kg of Panacete®810 (triglyceride ester of C8 and C10 -fatty acid, made by Nippon Oil & Fats Co., Ltd.) containing 0.2% by weight of ethanol intraperitoneally once just after ligation. The rats of the second group were administered with 24R,25-(OH)2 -D3 dissolved in Panacete®810 containing 0.2% by weight of ethanol intraperitoneally at a dose rate of 200 micrograms/kg body weight once just after ligation. After 15 hours of administration, all the rats were subjected to gastrectomy, and the presence or absence of the gastroparietal ulcer was examined on all the resected stomach.
As a result, the occurrence of gastric ulcer was found on 9 rats of 10 rats of the first group, and on 2 rats of 10 rats of the second group.
In a similar test, 24S,25-(OH)2 -D3 was used instead of 24R,25-(OH)2 -D3 to examine its effect in preventing the occurrence of gastric ulcer due to pyloric ligation. As a result, the occurrence of gastric ulcer was recognized on 3 rats of 10 rats of the group similarly treated to those of the second group.

[3] = system: thymus; assay: Weight ratio of thymus to body and number of thymocytes in rats given puromycin aminonucleoside (Example 11); assay type: in vivo, male JCL-Wistar rats; settings: 100 µg/kg/day oral 12 days with puromycin aminonucleoside 15 mg/kg s.c.
Method: Thirty-two male JCL-Wistar rats in tenth week after birth were used in the present test while keeping them in a room at 21±1° C. and 60±5% RH with solid diet (CE 2) and water taken ad lib.
They were divided equally into 4 groups (one group consisting of 8 animals), their treatments in the test being as follows:
subcutaneous injection of puromycin aminonucleoside as in the second group and oral administration of 24R,25-(OH)2 -D3 dissolved in Panacete 810 once a day at a daily dose rate of 100 micrograms/kg for continuous 12 days.
subcutaneous injection of puromycin aminonucleoside as in the second group and oral administration of 24S,25-(OH)2 -D3 dissolved in Panacete 810 once a day at a daily dose rate of 100 micrograms/kg for continuous 12 days.
After uniformly loosing the thymus in phosphate buffer solution with a forcets and fully pipetting, the mixture was filtered through a stainless steel mesh (Tylar standard #200) and the filtrate containing the thymic cells was stained with Turk's solution. The thus stained specimen was subjected to counting under a microscope.

[4] = system: thymic cells; assay: Pattern of the size of thymic cells by FACS (Example 12); assay type: in vivo, rats; settings: 100 µg/kg/day oral 12 days with puromycin aminonucleoside
Method: After feeding the rats (the same number and the same grouping) of the same strain and treating them in the same manner as in Example 11, their thymus was resected, and an analysis of the pattern of the size of the thymic cells was carried out while using Fluorescence Activated Cell Sorter (FACS II, made by Becton-Dickinson Co.) as follows:
After loosing the resected thymus in phosphate buffer solution sufficiently with a pincette, pipetting well and passing the mixture through a standard #200 Tyler stainless steel mesh, the filtrate was treated with an aqueous 0.83% by weight ammonium chloride buffer solution containing tris-hydroxyaminomethane to carry out hemolysis of the erythrocytes intermingled therein followed by three times of washing with the phosphate buffer solution. After adjusting the concentration of the thus obtained thymic cell to 5×10^6 cells/ml with the addition of the phosphate buffer solution, the abovementioned analysis was carried out. The ratio of the number of living thymic cells to the total number of the thus obtained thymic cells was confirmed to be higher than 95% after staining with trypan blue and counting under microscope.

[5] = system: mononucleates (lymphocytes) of peripheral blood; assay: Blastoid-transformation of rat lymphocytes in peripheral blood, 3H-TdR uptake (Example 13); assay type: in vivo
Method: The effect of the present compound on the blastoid-transformation of rat lymphocytes in the peripheral blood was examined as follows: After mixing each of the blood specimens taken from the respective rats of the four groups in Example 11 added with heparin and RPMI-1640 culture medium at a weight ratio of 1:1, the mixture was added to Ficoll-Paque solution, and the thus obtained mixture was subjected to centrifugal separation at 400 G for 20 min to collect the layer of mononucleates. After washing the thus collected mononucleates three times with PRMI-1640 culture medium (in a liquid state), the washed mononucleates were suspended into RPMI-1640 culture medium added with 10% by weight of calf serum to be in concentration of 1.5×10^6 cells/ml. Hundred microliters of the thus prepared suspension was placed in the pit of Pharcon microtest II plate, and after adding a substance promoting cell division (hereinafter referred to as mitogen) and RPMI-1640 culture medium added with 10% by weight of calf serum to the thus placed suspension to make the total volume 200 microliters, the thus prepared mixture was incubated for 72 hours under a gas (a 95:5 by volume mixture of air and carbon dioxide saturated with moisture) flow at 37° C. ^3 H-methylthymidine of specific activity of 5 Ci/mmol was added to the mixture during incubation at the time 24 hours before the incubation was over in an amount corresponding to 0.5 micro Ci. After the incubation was over, the cells in the culture were collected by filtering the cultured mixture, and the amount of radioactive isotope uptaken into the cells was determined by a liquid scintillation counter. For reference, the mitogen used in the present test is concanavalin A for T-cell or lipopolysaccharide for B-cell.

[6] = system: calcium level in serum; assay: Prevention of hypercalcemia in rats administered with 1-α-(OH)-D3 (Example 4); assay type: in vivo, male Wistar rats; settings: 1-α-(OH)-D3 10 µg/kg i.p. alone
Source text: In the present example, it is shown that 24R,25-(OH)2 -D3 has a function of preventing the occurrence of hypercalcemia on rats administered with 1-α-hydroxycholecalciferol (hereinafter referred to as 1-α-(OH)-D3).
Six subgroups of male Wistar rats of 130±30 g of body weight were subjected to the test while dividing the rats into 3 groups, each group consisting of 2 subgroups and each subgroup consisting of 5 animals. To the rats of the first group, after fasting for a night, an ethanolic solution of 1-α-(OH)-D3 was intraperitoneally administered at a dose rate of 10 micrograms of 1-α-(OH)-D3 /kg body weight. To the rats of the second group, a solution of 24R,25-(OH)2 -D3 in the triglyceride ester used in Example 1 was orally administered at a dose rate of 100 micrograms/kg body weight simultaneously with the same administration of 1-α-(OH)-D3 as in the rats of the first group.
The third group of the rats was used for control only with the oral administration of the triglyceride ester used in Example 1.

[7] = system: calcium level in serum; assay: Serum calcium in rats made hypercalcemic with Vitamin D3 (Example 1); assay type: in vivo, male Wistar rats; settings: for Calcium level in serum: 24R 100 µg/kg oral, calcitonin 4 MRCU/kg s.c.
Method: To 16 subgroups of male Wistar rats of body weight of 150±40 g (one subgroup consisting of 5 rats), a solution of Vitamin D3 dissolved in corn oil at 600 micrograms/ml was orally administered once a day for continuous 4 days at a daily dose rate of 0.5 ml/100 g body weight to prepare the rats artifically suffering from hypercalcemia. After one day's fasting from the final administration of Vitamin D3, the calcium level in the serum of each rat of the first subgroup was on the average 13.5±0.4 mg/dl. The remaining 15 subgroups of the rats were divided into 3 groups each consisting of 5 subgroups and subjected to the following tests.
To the rats of the second group, a solution of porcine calcitonin in a physiological saline solution containing 4% by weight of gelatin was subcutaneously injected at a dose rate of 4 MRCU/kg body weight instead of the solution of 24R,25-(OH)2 -D3 and they were treated as those of the first group.
To the rats of the third group, only the same triglyceride ester as in the first group was orally administered, and they are treated in the same manner as in the first group.
The calcium level of the respective sera of the thus collected blood was determined by OCPC method (Orthocresol Phthalein Complexone method) and shown in Table 1.

[8] = system: inorganic phosphate level in serum; settings: after its administration; cited from earlier work
[9] = 100 µg/kg/day oral 12 days with puromycin aminonucleoside

With `CC(C)=CCCC(C)=CCCC(C)=CCCC(=O)OCC=C(C)CCC=C(C)C` [gefarnate, 3,7-dimethyl-2,6-octadienyl-5,9,13-trimethyl-4,8,12-tetradecatrienoate, reference compound] the ulcer coefficient [1] was 7.5 mm^2 and the “rate of ulcer healing” value ([1]; vs control) was 0%.

For `C=C1CC[C@H](O)C/C1=C/C=C1\CCC[C@]2(C)[C@@H]([C@H](C)CC[C@H](O)C(C)(C)O)CC[C@@H]12` [24S,25-(OH)2 -D3], the “occurrence of gastric ulcer” value [2] was 3 rats of 10 rats, the Number of thymocytes [3] was “(30 ± 4.5) × 10^7” and the “number ratio of cells a little larger than normal cell to total thymic cells” value [4] was “the same as that of the control group”. For the same compound, the “Uptake of 3H-TdR in presence of Concanavalin A” value [5, 9] was 3582 ± 362 cpm, the “Uptake of 3H-TdR in presence of Lipopolysaccharide” value [5, 9] was 3126 ± 351 cpm and the “Number of mononucleate (ratio, first group = 1.00)” value ([5]; po, 0.1 mg/kg, 288 h) was 0.58 ± 0.15.

With `C=C1/C(=C\C=C2/CCC[C@]3(C)[C@@H]([C@H](C)CCCC(C)C)CC[C@@H]23)C[C@@H](O)C[C@@H]1O` [1-α-(OH)--D3, 1-α-hydroxycholecalciferol, reference compound] the “Calcium level in serum” value ([6]; after 10 hours) was 13.4 ± 0.6 mg/dL and the “Calcium level in serum” value ([6]; after 18 hours) was 14.5 ± 0.5 mg/dL.

For “calcitonin: porcine calcitonin in physiological saline solution containing 4% by weight of gelatin (CSNLSTCVLSAYWRNLNNFHRFSGMGFGPETP; ends and bridges not checked; cysteine pairing not given here; UniProt P01259 1-32, looked up)”, the “effect on raised serum calcium after 2 hours” value ([7]; 4 MRCU/kg s.c.) was “its effect was not recognized after 2 hours of its administration”, the “Calcium level in serum” value ([7]; 2 h after administration) was 10.8 ± 0.5 mg/dL and the “Calcium level in serum” value ([7]; 5 h after administration) was 13.0 ± 0.4 mg/dL. The “Calcium level in serum” value ([7]; 8 h after administration) was 13.4 ± 0.4 mg/dL, the “Calcium level in serum” value ([7]; 12 h after administration) was 13.9 ± 0.5 mg/dL and the “Calcium level in serum” value ([7]; 24 h after administration) was 13.4 ± 0.4 mg/dL. The “duration of strong reduction of serum inorganic phosphate level” value [8] was 2 to 3 h.
